# Laboratory results taken from ChEMBL document CHEMBL1201862, “PubChem BioAssay data set” (2004).
#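 Briefly, cells in 96-well plates were exposed to five compound concentrations for 48 h, and endpoints were estimated by linear interpolation. Abbreviation: GI50, concentration required for 50% inhibition of growth.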 Active and inactive are the calls of the source. Cut-off read from the data, not from the text of the source: active = GI50 up to about 1.1 µM and inactive = higher.
# How the values were obtained:
# Assay in all cases: inhibition of tumour cell growth, NCI panel, 48 h
# HL-60 = tested on: HL-60
# RXF 393 = tested on: RXF 393
# ACHN = tested on: ACHN
# OVCAR-5 = tested on: OVCAR-5
# OVCAR-8 = tested on: OVCAR-8
# HOP-92 = tested on: HOP-92
# SR = tested on: SR
# OVCAR-4 = tested on: OVCAR-4
# OVCAR-3 = tested on: OVCAR-3
# NCI-H23 = tested on: NCI-H23
# M14 = tested on: M14
# LOX IMVI = tested on: LOX IMVI
# HCC 2998 = tested on: HCC 2998
# CAKI-1 = tested on: CAKI-1
# HCT-15 = tested on: HCT-15
# NCI-H460 = tested on: NCI-H460
# RPMI-8226 = tested on: RPMI-8226
# KM12 = tested on: KM12
# T47D = tested on: T47D
# MOLT-4 = tested on: MOLT-4
Compound,GI50 (HL-60),GI50 (RXF 393),GI50 (ACHN),GI50 (OVCAR-5),GI50 (OVCAR-8),GI50 (HOP-92),GI50 (SR),GI50 (OVCAR-4),GI50 (OVCAR-3),GI50 (NCI-H23),GI50 (M14),GI50 (LOX IMVI),GI50 (HCC 2998),GI50 (CAKI-1),GI50 (HCT-15) [µM],GI50 (NCI-H460),GI50 (RPMI-8226),GI50 (KM12),GI50 (T47D),GI50 (MOLT-4)
Cn1cnc([N+](=O)[O-])c1Sc1nnc(-c2cccnc2)n1C,6.55 µM (inactive),7.83 µM (inactive),17.1 µM (inactive),67.3 µM (inactive),21.3 µM (inactive),14.5 µM (inactive),15.3 µM (inactive),22.2 µM (inactive),17.2 µM (inactive),23.1 µM (inactive),16.8 µM (inactive),17.8 µM (inactive),30.9 µM (inactive),25.4 µM (inactive),17.2,> 85.1 µM (inactive),18.1 µM (inactive),> 82 µM (inactive),12.6 µM (inactive),18.2 µM (inactive)
O=C(c1ccccc1)c1ccc2nc3n(c2c1)C(c1c(Cl)cccc1Cl)SC3 (stereo not drawn),2.36 µM (inactive),5.94 µM (inactive),7.69 µM (inactive),3.95 µM (inactive),6.65 µM (inactive),5.08 µM (inactive),1.43 µM (inactive),7.45 µM (inactive),4.68 µM (inactive),5.66 µM (inactive),3.3 µM (inactive),3.85 µM (inactive),7.05 µM (inactive),3.44 µM (inactive),3.35,3.66 µM (inactive),3.51 µM (inactive),2.87 µM (inactive),3.08 µM (inactive),2.72 µM (inactive)
COC(C(O)CO)C(O)C(O)C(=O)NNc1ccccc1 (stereo not drawn),6.32 µM (inactive),> 100 µM (inactive),> 100 µM (inactive),> 100 µM (inactive),> 100 µM (inactive),> 100 µM (inactive),> 100 µM (inactive),,> 100 µM (inactive),> 100 µM (inactive),57.7 µM (inactive),2.92 µM (inactive),> 100 µM (inactive),18.6 µM (inactive),> 100,9.46 µM (inactive),47.5 µM (inactive),23.6 µM (inactive),23.2 µM (inactive),> 100 µM (inactive)
CN(C(=O)Cc1ccc(Cl)c(Cl)c1)[C@@H]1CCCC[C@H]1[N+]1(C)CC=CC1,> 100 µM (inactive),> 100 µM (inactive),> 100 µM (inactive),> 100 µM (inactive),> 100 µM (inactive),> 100 µM (inactive),> 100 µM (inactive),> 100 µM (inactive),> 100 µM (inactive),> 100 µM (inactive),> 100 µM (inactive),> 100 µM (inactive),> 100 µM (inactive),> 100 µM (inactive),> 100,,> 100 µM (inactive),> 100 µM (inactive),> 100 µM (inactive),> 100 µM (inactive)
O=C1C[C@H](COCc2ccccc2)NC(=O)C[C@H](COCc2ccccc2)NC(=O)C[C@H](COCc2ccccc2)N1,92.7 µM (inactive),11.5 µM (inactive),16.4 µM (inactive),> 100 µM (inactive),> 100 µM (inactive),12.2 µM (inactive),42.4 µM (inactive),> 100 µM (inactive),80.5 µM (inactive),55.3 µM (inactive),> 100 µM (inactive),> 100 µM (inactive),> 100 µM (inactive),> 100 µM (inactive),> 100,> 100 µM (inactive),> 100 µM (inactive),> 100 µM (inactive),62.2 µM (inactive),5.9 µM (inactive)
CCOC(=O)c1cccc(NC(=O)CI)c1,0.653 µM (active),1.36 µM (inactive),0.682 µM (active),1.64 µM (inactive),0.264 µM (active),1.07 µM (active),0.0262 µM (active),0.5 µM (active),0.391 µM (active),0.336 µM (active),0.23 µM (active),0.123 µM (active),2.24 µM (inactive),0.55 µM (active),0.336,1.2 µM (inactive),0.721 µM (active),1.67 µM (inactive),1.39 µM (inactive),0.0284 µM (active)
Cc1ccc(/C=C2\CCS(=O)(=O)c3ccccc3C2=O)cc1,19.8 µM (inactive),22.7 µM (inactive),15.2 µM (inactive),26.7 µM (inactive),13.9 µM (inactive),15 µM (inactive),10.6 µM (inactive),15 µM (inactive),17.2 µM (inactive),15.5 µM (inactive),26.1 µM (inactive),15.2 µM (inactive),14.7 µM (inactive),18.3 µM (inactive),11.9,14.8 µM (inactive),31.4 µM (inactive),15.5 µM (inactive),16.1 µM (inactive),9.1 µM (inactive)
